This is an account of results in patent publication US10377791B2, “Therapeutically active estratrienthiazole derivatives as inhibitors of 17 B-hydroxysteroid dehydrogenase, type 1” (FORENDO PHARMA LTD, priority 2013, dated 2019).

Counter-ions that a name gives are not always drawn.

The conditions of series [1]: human, tissue homogenate, 1 h.
Protocol: The in vitro metabolic stability of the compounds of the invention was determined for exemplified compounds using human liver microsome and homogenate incubations. The incubation time points used with or without appropriate cofactors were 0 min and 60 min. Samples were collected at both time points and substrates were detected using LC/PDA/TOF-MS.
In series [2] the target is T1, recombinant human 17β-HSD1 (Homo sapiens, UniProt P14061).
T1 construct: made in house; host or cells: Sd9 (Sf9) insect cells, baculovirus (Bac to Bac Expression System)
T1 sequence (P14061 1-328): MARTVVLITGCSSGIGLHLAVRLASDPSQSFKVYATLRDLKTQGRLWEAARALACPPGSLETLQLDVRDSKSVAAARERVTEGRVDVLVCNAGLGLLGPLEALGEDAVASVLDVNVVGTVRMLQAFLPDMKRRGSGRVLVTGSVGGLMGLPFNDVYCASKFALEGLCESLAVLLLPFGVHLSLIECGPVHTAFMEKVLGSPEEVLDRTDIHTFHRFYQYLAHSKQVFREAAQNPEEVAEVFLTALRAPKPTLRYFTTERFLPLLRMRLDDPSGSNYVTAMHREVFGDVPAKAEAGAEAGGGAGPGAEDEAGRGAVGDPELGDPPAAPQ
Briefly: Inhibition of recombinant human 17β-HSD1. Format: biochemical. As to conditions: inhibitor at 1 μM; 30 nM estrone, 1 mM NADPH, 30 min at RT; read-out: 17β-HDS1 Inhibition % at 1 μM. In short, it runs like this:
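Microsomal enzyme from baculovirus-infected insect cells (1 μg/ml) incubated 30 min at RT in 20 mM KH2PO4 pH 7.4 with 30 nM ³H-estrone and 1 mM NADPH, inhibitor at 1 μM or 0.1 μM, 1% DMSO. TCA-stopped; estrone/estradiol separated by radio-HPLC; % inhibition = 100 − % conversion.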

The target in series [3] is T2, recombinant human 17β-HSD2 (Homo sapiens, UniProt P37059).
T2 construct: made in house; host or cells: Sd9 (Sf9) insect cells, baculovirus (Bac to Bac Expression System)
T2 sequence (P37059 1-387): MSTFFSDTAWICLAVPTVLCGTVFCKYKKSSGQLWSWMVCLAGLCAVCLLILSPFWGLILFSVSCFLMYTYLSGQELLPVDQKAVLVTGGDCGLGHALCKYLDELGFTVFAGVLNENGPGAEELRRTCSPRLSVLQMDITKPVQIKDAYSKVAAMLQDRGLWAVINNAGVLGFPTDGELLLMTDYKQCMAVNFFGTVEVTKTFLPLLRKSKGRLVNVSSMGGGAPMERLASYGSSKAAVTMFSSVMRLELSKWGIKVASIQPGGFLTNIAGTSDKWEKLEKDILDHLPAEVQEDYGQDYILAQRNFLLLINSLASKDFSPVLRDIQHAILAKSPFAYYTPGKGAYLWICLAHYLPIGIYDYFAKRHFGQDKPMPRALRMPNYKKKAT
The experiment in a line: Inhibition of recombinant human 17β-HSD2. Format: biochemical. To be noted: inhibitor at 1 μM; 50 nM estradiol, 1 mM NADH, 30 min at RT; read-out: 17β-HSD2 Inhibition % at 1 μM. In short, it runs like this:
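Membrane extract of baculovirus-expressed enzyme in Sf9 cells (4 μg/ml) incubated in 20 mM KH2PO4 pH 8.5 with 50 nM estradiol (³H-tracer) and 1 mM NADH, 30 min at RT, 1% DMSO, inhibitor at 1 μM or 0.1 μM. TCA-stopped; estradiol-to-estrone conversion by radio-HPLC; % inhibition = 100 − % conversion.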

For the compound `Cc1cnc(NC(=O)CC[C@@H]2CC(=O)[C@@]3(C)CCC4c5ccc(OS(=O)(=O)O)cc5CCC4C23)s1` (stereo partly drawn) [Compound 5, Sulphuric acid mono-{(13S,15R)-13-methyl-15-[2-(5-methylthiazol-2-ylcarbamoyl)-ethyl]-17-oxo-7,8,9,11,12,13,14,15,16,17-decahydro-6H-cyclopenta[a]phenanthren-3-yl} ester triethylamine salt], the “In vitro metabolic stability, % remaining after 60 min” value in series [1] stood at 50%. Besides, the figures for the inhibition at 1 µM in series [2] and in series [3] were 92% and 4%, respectively.

On to `Cc1cnc(NC(=O)CC[C@@H]2CC(=O)[C@@]3(C)CCC4c5ccccc5CCC4C23)s1` (stereo partly drawn) [Compound 83, 3-((13S,15R)-13-methyl-17-oxo-7,8,9,11,12,13,14,15,16,17-decahydro-6H-cyclopenta[a]phenanthren-15-yl)-N-(5-methylthiazol-2-yl)propanamide], for which, in series [1], the “In vitro metabolic stability, % remaining after 60 min” value is reported as 74%. In addition, the inhibition – broadly, the share of the control response that was lost under treatment – at 1 µM in series [2] turned out to be 92%; in series [3], 1%.
